In patent publication US11331327B2, “Antibacterial use of halogenated salicylanilides” (UNION therapeutics A/S, priority 2014, dated 2022):
Converted amounts (≈) assume the structure as drawn. Like-named read-outs stand apart in the source and are kept apart here.

System: S. aureus clinical isolates and S. aureus ATCC 29213
Test: MIC assay according to CLSI criteria, Example 2, S. aureus strains
Type: cell-based, Staphylococcus aureus
Conditions: Staphylococcus aureus, read-out: MIC
Description: Strains were conserved in Luria Bertani (LB) Broth (S. aureus) or Brain Heart Infusion (BHI) (S. pyogenes) supplemented with glycerol 15% (v/v) at −80° C., and reactivated by isolation on LB (S. aureus) or BHI (S. pyogenes) agar plates. Strains were cultivated in Mueller Hinton (MH) Broth-cation adjusted (S. aureus) or BHI (S. pyogenes). All strains were cultivated aerobically (microaerobically for S. pyogenes strains) at 37° C.
Bacterial cultures were stopped in their exponential growth phase and plates were inoculated with the approximate concentration of 5×10^5 cells per well. Plates were incubated at 37° C. for 18 hours (S. aureus) or 24 hours (S. pyogenes).

## C/C(=C\C(=O)OCCCCCCCCC(=O)O)C[C@@H]1OC[C@H](C[C@@H]2O[C@H]2[C@@H](C)[C@H](C)O)[C@@H](O)[C@H]1O [Mupirocin]
ATCC 29213 / MRSA, strain MRSA 15
  MIC: 0.25 µg/mL (≈ 0.499 µM)
ATCC 29213 / MRSA, strain MRSA 16
  MIC: > 16 µg/mL
ATCC 29213 / MRSA, strain MRSA 17
  MIC: > 16 µg/mL
ATCC 29213 / MRSA, strain MRSA 18
  MIC: 0.125 µg/mL (≈ 0.25 µM)
ATCC 29213 / MRSA, strain MRSA 19
  MIC: 0.25 µg/mL (≈ 0.499 µM)
ATCC 29213 / MRSA, strain MRSA 20
  MIC: 0.25 µg/mL (≈ 0.499 µM)
ATCC 29213 / MRSA, strain MRSA 21
  MIC: 0.125 µg/mL (≈ 0.25 µM)
ATCC 29213 / MRSA, strain MRSA 22
  MIC: 0.25 µg/mL (≈ 0.499 µM)
ATCC 29213 / MRSA, strain MRSA 23
  MIC: 0.25 µg/mL (≈ 0.499 µM)
ATCC 29213 / MRSA, strain MRSA 24
  MIC: 0.25 µg/mL (≈ 0.499 µM)
ATCC 29213 / MRSA, strain MRSA 25
  MIC: 0.25 µg/mL (≈ 0.499 µM)
ATCC 29213 / MRSA, strain MRSA 26
  MIC: 0.5 µg/mL (≈ 0.999 µM)
ATCC 29213 / MRSA, strain MRSA 27
  MIC: 0.25 µg/mL (≈ 0.499 µM)
ATCC 29213 / MRSA, strain MRSA 27b
  MIC: 0.25 µg/mL (≈ 0.499 µM)
ATCC 29213 / MRSA, strain MRSA 28
  MIC: 0.5 µg/mL (≈ 0.999 µM)
ATCC 29213 / MRSA, strain MRSA 29
  MIC: 0.25 µg/mL (≈ 0.499 µM)
ATCC 29213 / MRSA, strain MRSA 30
  MIC: 0.125 µg/mL (≈ 0.25 µM)
ATCC 29213 / MRSA, strain MRSA 31
  MIC: 0.25 µg/mL (≈ 0.499 µM)
ATCC 29213 / MRSA, strain MRSA 32
  MIC: 0.25 µg/mL (≈ 0.499 µM)
ATCC 29213 / MRSA, strain MRSA 33
  MIC: 0.25 µg/mL (≈ 0.499 µM)
ATCC 29213 / MRSA, strain MRSA 34
  MIC: 0.25 µg/mL (≈ 0.499 µM)
ATCC 29213 / MRSA, strain MRSA 35
  MIC: 0.5 µg/mL (≈ 0.999 µM)
ATCC 29213 / MRSA, strain MRSA 36
  MIC: 0.25 µg/mL (≈ 0.499 µM)
ATCC 29213 / MRSA, strain MRSA 37
  MIC: 0.25 µg/mL (≈ 0.499 µM)
ATCC 29213 / MRSA, strain MRSA 38
  MIC: 0.125 µg/mL (≈ 0.25 µM)
ATCC 29213 / MRSA, strain MRSA 39
  MIC: 0.25 µg/mL (≈ 0.499 µM)
ATCC 29213 / MRSA, strain MRSA 40
  MIC: 0.25 µg/mL (≈ 0.499 µM)
ATCC 29213 / MRSA, strain MRSA 41
  MIC: 0.125 µg/mL (≈ 0.25 µM)
ATCC 29213 / MRSA, strain MRSA 42
  MIC: 0.25 µg/mL (≈ 0.499 µM)
ATCC 29213 / MRSA, strain MRSA 43
  MIC: 0.25 µg/mL (≈ 0.499 µM)
ATCC 29213 / MRSA, strain MRSA 44
  MIC: 0.25 µg/mL (≈ 0.499 µM)
ATCC 29213 / MRSA, strain MRSA 45
  MIC: 0.13 µg/mL (≈ 0.26 µM)
ATCC 29213 / MRSA, strain MRSA 46
  MIC: 0.13 µg/mL (≈ 0.26 µM)
ATCC 29213 / MRSA, strain MRSA 47
  MIC: 0.25 µg/mL (≈ 0.499 µM)
ATCC 29213 / MRSA, strain MRSA 48
  MIC: 0.13 µg/mL (≈ 0.26 µM)
ATCC 29213 / MRSA, strain MRSA 49
  MIC: 0.25 µg/mL (≈ 0.499 µM)
ATCC 29213 / MRSA, strain MRSA 50
  MIC: 0.25 µg/mL (≈ 0.499 µM)
ATCC 29213 / MRSA, strain MRSA 51
  MIC: 0.25 µg/mL (≈ 0.499 µM)
ATCC 29213 / MRSA, strain MRSA 52
  MIC: 0.25 µg/mL (≈ 0.499 µM)
ATCC 29213 / MRSA, strain MRSA 53
  MIC: 0.25 µg/mL (≈ 0.499 µM)
ATCC 29213 / MRSA, strain MRSA 54
  MIC: 0.25 µg/mL (≈ 0.499 µM)
ATCC 29213 / MRSA, strain MRSA 55
  MIC: 0.25 µg/mL (≈ 0.499 µM)
ATCC 29213 / MRSA, strain MRSA 56
  MIC: 0.25 µg/mL (≈ 0.499 µM)
ATCC 29213 / MRSA, strain MRSA 57
  MIC: 0.125 µg/mL (≈ 0.25 µM)
ATCC 29213 / MRSA, strain MRSA 58
  MIC: 0.125 µg/mL (≈ 0.25 µM)
ATCC 29213 / MRSA, strain MRSA 59
  MIC: 0.125 µg/mL (≈ 0.25 µM)
ATCC 29213 / MRSA, strain MRSA 60
  MIC: 0.25 µg/mL (≈ 0.499 µM)
ATCC 29213 / MRSA, strain MRSA 61
  MIC: 0.25 µg/mL (≈ 0.499 µM)
ATCC 29213 / MRSA, strain MRSA 62
  MIC: 0.25 µg/mL (≈ 0.499 µM)
ATCC 29213 / MRSA, strain MRSA 63
  MIC: 0.125 µg/mL (≈ 0.25 µM)
ATCC 29213 / MRSA, strain MRSA 64
  MIC: 0.25 µg/mL (≈ 0.499 µM)
ATCC 29213 / MRSA, strain MRSA 65
  MIC: 0.25 µg/mL (≈ 0.499 µM)
ATCC 29213 / MRSA, strain MRSA 66
  MIC: 0.25 µg/mL (≈ 0.499 µM)
ATCC 29213 / MRSA, strain MRSA 67
  MIC: 0.125 µg/mL (≈ 0.25 µM)
ATCC 29213 / MRSA, strain MRSA 68
  MIC: 0.25 µg/mL (≈ 0.499 µM)
ATCC 29213 / MRSA, strain MRSA 69
  MIC: 0.125 µg/mL (≈ 0.25 µM)
ATCC 29213 / MRSA, strain MRSA 70
  MIC: 0.25 µg/mL (≈ 0.499 µM)
ATCC 29213 / MRSA, strain MRSA 71
  MIC: 0.125 µg/mL (≈ 0.25 µM)
ATCC 29213 / MRSA, strain MRSA 72
  MIC: 0.25 µg/mL (≈ 0.499 µM)
ATCC 29213 / MRSA, strain MRSA 73
  MIC: 0.25 µg/mL (≈ 0.499 µM)
ATCC 29213 / MRSA, strain MRSA 74
  MIC: 0.25 µg/mL (≈ 0.499 µM)
ATCC 29213 / MRSA, strain MRSA 75
  MIC: 0.5 µg/mL (≈ 0.999 µM)
ATCC 29213 / MRSA, strain MRSA 76
  MIC: 0.25 µg/mL (≈ 0.499 µM)
ATCC 29213 / MRSA, strain MRSA 77
  MIC: 0.25 µg/mL (≈ 0.499 µM)
ATCC 29213 / MRSA, strain MRSA 78
  MIC: 0.25 µg/mL (≈ 0.499 µM)
ATCC 29213 / MRSA, strain MRSA 79
  MIC: 0.25 µg/mL (≈ 0.499 µM)
ATCC 29213 / MRSA, strain MRSA 80
  MIC: 0.25 µg/mL (≈ 0.499 µM)
ATCC 29213 / MRSA, strain MRSA 81
  MIC: 0.25 µg/mL (≈ 0.499 µM)
ATCC 29213 / MRSA, strain MRSA 82
  MIC: 0.25 µg/mL (≈ 0.499 µM)
ATCC 29213 / MRSA, strain MRSA 83
  MIC: 0.25 µg/mL (≈ 0.499 µM)
ATCC 29213 / MRSA, strain MRSA 84
  MIC: 0.25 µg/mL (≈ 0.499 µM)
ATCC 29213 / MRSA, strain MRSA 85
  MIC: 0.25 µg/mL (≈ 0.499 µM)
ATCC 29213 / MRSA, strain MRSA 86
  MIC: 0.25 µg/mL (≈ 0.499 µM)
ATCC 29213 / MRSA, strain MRSA 87
  MIC: 0.25 µg/mL (≈ 0.499 µM)
ATCC 29213 / MRSA, strain MRSA 88
  MIC: 0.25 µg/mL (≈ 0.499 µM)
ATCC 29213 / MRSA, strain MRSA 89
  MIC: 0.25 µg/mL (≈ 0.499 µM)
ATCC 29213 / MRSA, strain MRSA 90
  MIC: 0.25 µg/mL (≈ 0.499 µM)
ATCC 29213 / MRSA, strain MRSA 91
  MIC: 0.25 µg/mL (≈ 0.499 µM)
ATCC 29213 / MRSA, strain MRSA 92
  MIC: 0.25 µg/mL (≈ 0.499 µM)
ATCC 29213 / MRSA, strain MRSA 93
  MIC: 0.25 µg/mL (≈ 0.499 µM)
ATCC 29213 / MRSA, strain MRSA 94
  MIC: 0.25 µg/mL (≈ 0.499 µM)
ATCC 29213 / MRSA, strain MRSA 95
  MIC: 0.25 µg/mL (≈ 0.499 µM)
ATCC 29213 / MRSA, strain MRSA 96
  MIC: 0.125 µg/mL (≈ 0.25 µM)
ATCC 29213 / MRSA, strain MRSA 97
  MIC: 0.25 µg/mL (≈ 0.499 µM)
ATCC 29213 / MRSA, strain MRSA 98
  MIC: 0.5 µg/mL (≈ 0.999 µM)
ATCC 29213 / MRSA, strain MRSA 99
  MIC: 0.5 µg/mL (≈ 0.999 µM)
ATCC 29213 / MRSA, strain MRSA 100
  MIC: 0.5 µg/mL (≈ 0.999 µM)
ATCC 29213 / MRSA, strain MRSA 101
  MIC: 0.25 µg/mL (≈ 0.499 µM)
ATCC 29213 / MRSA, strain MRSA 102
  MIC: 0.25 µg/mL (≈ 0.499 µM)
ATCC 29213 / MRSA, strain MRSA 103
  MIC: 0.25 µg/mL (≈ 0.499 µM)
ATCC 29213 / MRSA, strain MRSA 104
  MIC: 0.25 µg/mL (≈ 0.499 µM)
ATCC 29213 / MRSA, strain MRSA 105
  MIC: 0.25 µg/mL (≈ 0.499 µM)
ATCC 29213 / MRSA, strain MRSA 106
  MIC: 0.25 µg/mL (≈ 0.499 µM)
ATCC 29213 / MRSA, strain MRSA 107
  MIC: 0.25 µg/mL (≈ 0.499 µM)
ATCC 29213 / MRSA, strain MRSA 108
  MIC: 0.25 µg/mL (≈ 0.499 µM)
ATCC 29213 / MRSA, strain MRSA 109
  MIC: 0.25 µg/mL (≈ 0.499 µM)
ATCC 29213 / MRSA, strain MRSA 110
  MIC: 0.125 µg/mL (≈ 0.25 µM)
ATCC 29213 / MRSA, strain MRSA 111
  MIC: 0.25 µg/mL (≈ 0.499 µM)
ATCC 29213 / MRSA, strain MRSA 112
  MIC: 0.25 µg/mL (≈ 0.499 µM)
ATCC 29213 / MRSA, strain MRSA 113
  MIC: 0.25 µg/mL (≈ 0.499 µM)
ATCC 29213 / MSSA, strain MSSA 01
  MIC: 0.125 µg/mL (≈ 0.25 µM)
ATCC 29213 / MSSA, strain MSSA 02
  MIC: 0.125 µg/mL (≈ 0.25 µM)
ATCC 29213 / NEWMAN, strain Newman
  MIC: 0.25 µg/mL (≈ 0.499 µM)
